The target in assay [1] is T1, human CaV3.1 (Homo sapiens, UniProt O43497).
T1 construct: expressed in transfected cells; host or cells: HEK 293 T cells, transient transfection (FuGENE HD)
The assay is described as follows: T-type calcium channel window current FLIPR assay, CaV3.1. The format is cell-based. The following applies: n = 3, read-out: IC50 CaV3.1 (LVA CaVs). On the procedure:
(§1) The human embryonic kidney 293 (HEK 293) cell lines (from Emmanuel Bourinet, Montpellier, France) stably expressing CaV3.2 or CaV3.3 were cultured under 5% carbon dioxide at 37 °C in Dulbecco’s Modified Eagle Medium (DMEM) Glutamax (Gibco, Life Technologies, Carlsbad, CA, USA) supplemented with 10% (v/v) fetal bovine serum (FBS), 100 U/mL penicillin, 100 μg/mL streptomycin (Gibco, Life Technologies, Carlsbad, CA, USA), and 750 μg/mL geneticin (G418) (Gibco, Life Technologies). The Chinese Hamster Ovary (CHO) cell lines (Emmanuel Bourinet, Montpellier, France) expressing CaV3.1 were cultured under 5% carbon dioxide at 37 °C in Alpha Minimum Essential Media (MEM) Glutamax (Gibco, Life Technologies), supplemented with 10% (v/v) fetal bovine serum (FBS) and 300 μg/mL geneticin (G418) (Gibco, Life Technologies). The human neuroblastoma SH-SY5Y cells (Victor Diaz, Goettingen, Germany) were cultured under 5% carbon dioxide at 37 °C in RPMI 1640 antibiotic-free medium (Invitrogen, Carlsbad, CA, USA), supplemented with 15% FBS and 2 mM GlutaMAX™ (Invitrogen). D-PBS (Gibco, Life Technologies) was used to wash the cells, and 0.25% Trypsin-EDTA (Gibco, Life Technologies) was used to detach cells from the flask surface. They were split in a ratio of 1:5 (ideally 1000 cells/cm^2) when they reached 70–80% confluence (every 2–3 days). Transiently transfected CaV3.1 HEK293 T cells were used in FLIPR Assays. HEK 293 T cells were cultured under 5% carbon dioxide at 37 °C in DMEM supplemented with 10% (v/v) FBS. D-PBS was used to wash the cells, and 0.25% Trypsin-EDTA was used to detach cells from the flask surface. The cells were split and seeded at 6 million cells per T175 flask, to reach 70–80% confluence after 24 h. The next day, 12 μg DNA of human CaV3.1 was incubated in 900 μL serum-free DMEM with 36 μL FuGENE HD transfection reagent (Promega Corporation, Madison, WI, USA) (1:3 DNA/Fugene ratio) for 20 min, and then the mixture was added into the cell flask slowly, drop by drop. After the transfection, the cells were cultured under 5% carbon dioxide at 37 °C for 24 h and then moved to a 28 °C incubator.
(§2) HEK 293 cells stably expressing CaV3.2 or CaV3.3 were seeded into 384-well black wall clear bottom plates (Corning) at a density of 30,000 cells per well. Transiently transfected CaV3.1HEK293 T cells were seeded into 384-well black wall clear bottom plates at a density of 60,000 cells per well. Once the cells reached 90–95% confluence after 24 h, the media were removed from the wells and replaced with 20 μL of 10% calcium 4 dye (Molecular Devices, Sunnyvale, CA, USA) in HBSS-HEPES (containing 5 mM KCl, 10 mM HEPES, 140 mM NaCl, 10 mM glucose, and 0.5 mM CaCl2, pH 7.4) with 0.1% bovine serum albumin (BSA). The cells were incubated for 30 min at 37 °C in the presence of 5% carbon dioxide. Each well on the reagent plates for the first addition contained 15 μL different concentrations of compounds dissolved in HBSS-HEPES containing 0.1% BSA and <0.5% DMSO and was incubated for 20 min after loaded. Positive and negative controls contained 15 μL of HBSS-HEPES (0.1% BSA) alone. The plates were placed in the FLIPR^TETRA (Molecular Devices, Sunnyvale, CA, USA) programmed to measure maximum fluorescence intensity following a second addition of the agonist 5 mM CaCl2. The fluorescence readings were recorded and converted as described previously, and HBSS-HEPES (0.1% BSA) was used in the second addition as a negative control.

Assay [2] concerns the target CaV3.2 (Homo sapiens, UniProt O95180). In words: T-type calcium channel window current FLIPR assay, CaV3.2. The format is cell-based. Here is the method:
as §1, §2

The target of assay [3] is CaV3.3 (Homo sapiens, UniProt Q9P0X4). The assay is described as follows: T-type calcium channel window current FLIPR assay, CaV3.3. The format is cell-based. Here is the method:
as §1, §2

In assay [4] the test system is HT-29 cells. In words: Cell viability MTT assay, HT-29. The format is cell-based, human. The note with it: for viability at 50 µM: HT-29, 50 µM, n = 4; for IC50: n = 3; for preferential anti-proliferative activity on HT-29: versus MCF-7, T-47D, A549. Here is the method: Human breast cancer cell line MCF-7 and T-47D, lung cancer cell line A549, and colon cancer cell line HT-29 were cultured under 5% carbon dioxide at 37 °C in DMEM Glutamax (Gibco, Life Technologies) supplemented with 10% (v/v) FBS. They were split in a ratio of 1:3–1:6 (ideally 2–4 × 10,000 cells/cm^2) when they reached 70–80% confluence using 0.25% Trypsin-EDTA. For cell viability MTT assay, cells were seeded into 96-well clear bottom culture plates (Corning, Lowell, MA, USA) at a density of 5 × 10^3 cells/well and settled at 37 °C for 24 h.
Seeded cells were treated with various concentrations of compounds for desired time period (24, 48 and 72 h). After the treatments, the media were removed from each well, and replaced with 25 μL of serum-free media and 25 μL of MTT Reagent (cat. no., ab211091; Abcam, Cambridge, MA, USA). The plate was then incubated at 37 °C for 3 h, and 75 μL of MTT Solvent (cat. no., ab211091; Abcam) was added into each well after incubation. The absorbance was evaluated at 590 nm. Cell-wells treated with 0.1% DMSO were used as positive control and no cell-wells were used as background control.
On the technique in general: Formazan colour is commonly taken as a measure of viable cells.

Where [5] appears, read: FLIPR window current, n = 3, read-out: IC50 CaV3.2 (LVA CaVs).
The mark [6] stands for this setting: FLIPR, one separate experiment in quadruplicate (n = 4), read-out: IC50 of representative concentration-response curve, CaV3.2 window current.
Where [7] appears, read: Homo sapiens, HT-29, 72 h, 72 h treatment.
[8] abbreviates: FLIPR window current, n = 3, read-out: IC50 CaV3.3 (LVA CaVs).
The mark [9] stands for this setting: FLIPR, one separate experiment in quadruplicate (n = 4), read-out: IC50 of representative concentration-response curve, CaV3.3 window current.

Each structure is given as a SMILES string. Like-named read-outs stand apart in the source and are kept apart here.

Broadly, the viability is the share of living cells, or the viability signal relative to a control.

Sequence of CaV3.2 (O95180 whole entry): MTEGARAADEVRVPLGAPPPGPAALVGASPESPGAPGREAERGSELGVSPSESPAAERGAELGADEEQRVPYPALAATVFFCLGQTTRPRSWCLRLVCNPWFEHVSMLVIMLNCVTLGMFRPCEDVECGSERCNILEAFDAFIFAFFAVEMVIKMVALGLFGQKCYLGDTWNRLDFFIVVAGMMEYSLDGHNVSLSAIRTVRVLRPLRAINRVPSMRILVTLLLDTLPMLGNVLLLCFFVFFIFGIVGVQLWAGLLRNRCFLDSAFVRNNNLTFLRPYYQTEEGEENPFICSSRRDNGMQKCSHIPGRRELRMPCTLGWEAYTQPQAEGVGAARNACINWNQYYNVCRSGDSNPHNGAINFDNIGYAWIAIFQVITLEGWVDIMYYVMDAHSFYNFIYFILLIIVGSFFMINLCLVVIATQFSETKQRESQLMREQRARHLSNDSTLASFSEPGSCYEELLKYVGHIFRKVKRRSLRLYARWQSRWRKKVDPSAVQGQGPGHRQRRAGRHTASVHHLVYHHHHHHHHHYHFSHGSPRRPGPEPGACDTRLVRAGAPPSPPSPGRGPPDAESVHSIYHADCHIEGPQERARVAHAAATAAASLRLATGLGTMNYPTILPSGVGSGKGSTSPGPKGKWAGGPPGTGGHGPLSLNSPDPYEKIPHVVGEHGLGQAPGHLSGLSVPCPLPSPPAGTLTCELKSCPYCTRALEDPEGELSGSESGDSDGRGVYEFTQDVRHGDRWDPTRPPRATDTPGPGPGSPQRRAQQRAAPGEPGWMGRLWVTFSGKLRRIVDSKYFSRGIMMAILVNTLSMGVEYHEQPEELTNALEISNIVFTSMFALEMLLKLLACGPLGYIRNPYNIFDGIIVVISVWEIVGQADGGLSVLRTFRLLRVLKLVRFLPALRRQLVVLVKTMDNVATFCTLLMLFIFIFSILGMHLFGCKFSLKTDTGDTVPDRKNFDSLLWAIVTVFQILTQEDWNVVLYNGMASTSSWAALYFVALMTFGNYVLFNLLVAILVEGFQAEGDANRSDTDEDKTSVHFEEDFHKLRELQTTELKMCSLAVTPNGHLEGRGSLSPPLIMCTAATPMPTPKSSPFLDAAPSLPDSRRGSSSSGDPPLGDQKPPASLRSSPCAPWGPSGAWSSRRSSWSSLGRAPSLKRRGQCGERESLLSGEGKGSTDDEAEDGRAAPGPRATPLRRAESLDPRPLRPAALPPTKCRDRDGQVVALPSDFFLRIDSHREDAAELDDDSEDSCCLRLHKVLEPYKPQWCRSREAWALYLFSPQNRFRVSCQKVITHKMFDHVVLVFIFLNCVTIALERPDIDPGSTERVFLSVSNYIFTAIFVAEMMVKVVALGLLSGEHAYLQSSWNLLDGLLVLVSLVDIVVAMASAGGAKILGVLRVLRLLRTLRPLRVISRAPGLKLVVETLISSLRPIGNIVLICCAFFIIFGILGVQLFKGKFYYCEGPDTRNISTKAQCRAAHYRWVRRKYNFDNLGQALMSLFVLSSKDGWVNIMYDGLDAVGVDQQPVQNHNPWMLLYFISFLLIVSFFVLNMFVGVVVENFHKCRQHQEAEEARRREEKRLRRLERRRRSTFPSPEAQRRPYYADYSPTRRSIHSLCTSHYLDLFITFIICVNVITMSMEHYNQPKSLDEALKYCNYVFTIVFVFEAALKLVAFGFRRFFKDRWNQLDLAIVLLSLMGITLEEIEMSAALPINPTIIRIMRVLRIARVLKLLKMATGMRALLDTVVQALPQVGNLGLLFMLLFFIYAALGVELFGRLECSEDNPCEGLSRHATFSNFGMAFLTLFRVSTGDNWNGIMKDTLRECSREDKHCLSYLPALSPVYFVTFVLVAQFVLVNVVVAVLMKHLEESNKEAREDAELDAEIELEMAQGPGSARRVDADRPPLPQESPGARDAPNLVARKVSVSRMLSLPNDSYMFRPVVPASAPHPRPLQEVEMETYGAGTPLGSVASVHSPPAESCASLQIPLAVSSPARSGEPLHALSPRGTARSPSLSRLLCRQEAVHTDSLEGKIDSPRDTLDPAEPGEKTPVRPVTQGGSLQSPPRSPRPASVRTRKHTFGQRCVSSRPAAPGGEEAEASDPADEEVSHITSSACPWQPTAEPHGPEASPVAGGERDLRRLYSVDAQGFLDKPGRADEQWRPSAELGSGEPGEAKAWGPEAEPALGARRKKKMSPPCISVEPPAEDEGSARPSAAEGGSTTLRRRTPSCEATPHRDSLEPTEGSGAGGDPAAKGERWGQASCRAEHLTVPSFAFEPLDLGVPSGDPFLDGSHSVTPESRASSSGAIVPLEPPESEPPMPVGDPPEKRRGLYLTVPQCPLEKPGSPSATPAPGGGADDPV
T1 sequence (O43497 whole entry): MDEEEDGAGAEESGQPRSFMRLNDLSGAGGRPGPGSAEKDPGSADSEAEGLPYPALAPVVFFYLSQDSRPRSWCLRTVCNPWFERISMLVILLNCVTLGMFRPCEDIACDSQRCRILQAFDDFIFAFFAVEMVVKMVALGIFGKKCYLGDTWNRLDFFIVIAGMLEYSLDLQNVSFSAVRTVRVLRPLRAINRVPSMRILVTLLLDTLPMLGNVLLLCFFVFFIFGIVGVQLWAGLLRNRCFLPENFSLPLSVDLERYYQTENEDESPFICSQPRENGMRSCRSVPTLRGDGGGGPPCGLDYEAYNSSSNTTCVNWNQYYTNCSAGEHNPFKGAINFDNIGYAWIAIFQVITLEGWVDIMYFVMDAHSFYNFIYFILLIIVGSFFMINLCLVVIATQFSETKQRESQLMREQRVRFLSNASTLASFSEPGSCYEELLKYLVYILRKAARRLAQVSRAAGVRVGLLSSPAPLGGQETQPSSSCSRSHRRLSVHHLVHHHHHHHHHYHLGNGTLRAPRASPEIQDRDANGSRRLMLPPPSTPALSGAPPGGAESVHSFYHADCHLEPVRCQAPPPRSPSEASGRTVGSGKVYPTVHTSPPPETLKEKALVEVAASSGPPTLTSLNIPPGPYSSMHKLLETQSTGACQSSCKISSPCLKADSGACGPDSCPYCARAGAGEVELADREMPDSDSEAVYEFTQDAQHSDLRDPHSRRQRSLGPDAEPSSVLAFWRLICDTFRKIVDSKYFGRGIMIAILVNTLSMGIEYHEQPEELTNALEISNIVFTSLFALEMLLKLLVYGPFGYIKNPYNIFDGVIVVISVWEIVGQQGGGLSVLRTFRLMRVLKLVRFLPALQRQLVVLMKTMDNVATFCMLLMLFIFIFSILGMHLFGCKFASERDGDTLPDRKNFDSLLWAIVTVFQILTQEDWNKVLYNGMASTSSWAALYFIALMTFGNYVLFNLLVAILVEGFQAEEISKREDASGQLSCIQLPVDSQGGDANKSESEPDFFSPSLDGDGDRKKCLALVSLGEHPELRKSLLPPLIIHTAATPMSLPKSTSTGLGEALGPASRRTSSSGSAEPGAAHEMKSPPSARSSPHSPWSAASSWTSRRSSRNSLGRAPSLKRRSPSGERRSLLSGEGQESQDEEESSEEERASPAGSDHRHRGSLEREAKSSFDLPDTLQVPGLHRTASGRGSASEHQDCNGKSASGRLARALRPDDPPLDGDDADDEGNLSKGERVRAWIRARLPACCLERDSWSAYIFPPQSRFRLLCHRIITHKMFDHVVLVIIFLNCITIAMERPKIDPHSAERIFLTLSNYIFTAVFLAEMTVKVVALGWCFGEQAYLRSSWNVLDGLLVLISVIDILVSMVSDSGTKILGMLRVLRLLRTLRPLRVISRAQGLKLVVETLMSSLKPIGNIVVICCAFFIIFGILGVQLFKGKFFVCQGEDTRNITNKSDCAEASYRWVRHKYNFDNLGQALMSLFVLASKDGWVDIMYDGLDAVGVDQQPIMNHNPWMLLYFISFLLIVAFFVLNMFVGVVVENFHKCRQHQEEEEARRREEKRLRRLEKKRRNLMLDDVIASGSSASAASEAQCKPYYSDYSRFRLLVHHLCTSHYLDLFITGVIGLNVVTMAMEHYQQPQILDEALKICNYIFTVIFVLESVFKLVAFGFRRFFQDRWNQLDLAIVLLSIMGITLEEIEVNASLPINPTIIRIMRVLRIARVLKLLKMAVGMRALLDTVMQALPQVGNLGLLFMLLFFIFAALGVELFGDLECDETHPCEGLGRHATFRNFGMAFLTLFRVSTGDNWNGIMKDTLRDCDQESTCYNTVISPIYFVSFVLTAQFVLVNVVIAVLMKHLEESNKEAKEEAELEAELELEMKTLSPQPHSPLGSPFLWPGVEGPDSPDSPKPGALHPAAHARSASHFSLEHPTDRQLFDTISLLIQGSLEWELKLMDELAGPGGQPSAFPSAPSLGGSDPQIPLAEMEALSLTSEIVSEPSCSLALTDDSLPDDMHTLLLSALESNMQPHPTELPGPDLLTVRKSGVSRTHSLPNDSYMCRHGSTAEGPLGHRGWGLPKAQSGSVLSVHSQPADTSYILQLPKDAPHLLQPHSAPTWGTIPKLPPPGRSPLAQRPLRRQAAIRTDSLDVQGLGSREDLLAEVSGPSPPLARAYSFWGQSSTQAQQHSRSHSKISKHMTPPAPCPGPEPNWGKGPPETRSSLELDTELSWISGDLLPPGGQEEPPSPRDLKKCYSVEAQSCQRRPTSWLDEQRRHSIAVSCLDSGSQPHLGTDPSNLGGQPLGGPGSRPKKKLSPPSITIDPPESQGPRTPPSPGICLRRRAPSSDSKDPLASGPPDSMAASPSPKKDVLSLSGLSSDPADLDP

On to `O=C(c1cn(Cc2ccccc2)c2ccccc12)c1cn(Cc2ccccc2)c2ccccc12` [IX, bis(1-benzyl-1H-indol-3-yl)methanone], for which the IC50 was 35.1 ± 1.05 µM in assay [1]; 3.05 ± 0.51 µM in assay [2] (IC50 CaV3.2 (LVA CaVs), FLIPR window current, n = 3); 3.28 µM in assay [2] (IC50 of representative concentration-response curve, CaV3.2 window current, FLIPR, one separate experiment in quadruplicate (n = 4)); 6.68 ± 0.79 µM in assay [3] (IC50 CaV3.3 (LVA CaVs), FLIPR window current, n = 3); 5.27 µM in assay [3] (IC50 of representative concentration-response curve, CaV3.3 window current, FLIPR, one separate experiment in quadruplicate (n = 4)). Besides, in assay [3] (FLIPR), the “less active at HVA CaVs than at CaV3.2 and CaV3.3” value is more than 7 fold.
Regarding `O=C(c1c[nH]c2ccccc12)c1c[nH]c2ccccc12` [DIM-one, 3,3′-diindolylmethanone], the IC50 in assay [1] was 158 ± 11.1 µM; in assay [2] (setting [5]), 73.9 ± 2.48 µM; in assay [2] (setting [6]), 74 µM; in assay [4] (setting [7]), 20 µM; in assay [3] (setting [8]), 9.07 ± 0.69 µM; in assay [3] (setting [9]), 8.18 µM. Also, the “reduced potency for CaV3.2 window current compared to DIM” value in assay [2] (FLIPR) is on record as ~ 1.4 fold. Further, the “better antiproliferative effect on HT-29 cell viability than on the other three cancer cell lines” value in assay [4] (72 h treatment) is not below 2 fold. For the same molecule, the viability at 50 µM in assay [4] (Homo sapiens, 72 h treatment) amounted to 5.95 ± 0.19%. Besides, in assay [4], the “preferential anti-proliferative activity on HT-29” value was “preferential anti-proliferative activity”. Also, in assay [3] (FLIPR), the “reduced potency for CaV3.3 window current compared to DIM” value worked out at 4.3 fold.
As for `O=C(c1c[nH]c2cc(Br)ccc12)c1c[nH]c2cc(Br)ccc12` [IV], the IC50 is 53.5 ± 2 µM in assay [1]; 57.3 ± 3.38 µM in assay [2] (setting [5]); 1.2 µM in assay [4] (72 h treatment); 5.9 µM in assay [4] (Homo sapiens, HT-29, 24 h, 24 h treatment); 1.6 µM in assay [4] (Homo sapiens, HT-29, 48 h, 48 h treatment); 1 µM in assay [4] (setting [7]). Also, the IC50 in assay [3] (setting [8]) was 62.5 ± 4.1 µM. Moreover, the “better antiproliferative effect on HT-29 cell viability than on the other three cancer cell lines” value in assay [4] (72 h treatment) is on record as ~ 3 fold. Also, the “improved potency on HT-29 cell viability compared with the other three compounds” value in assay [4] (72 h treatment) is more than 10 fold. This molecule also returned a viability at 50 µM in assay [4] (Homo sapiens, 72 h treatment) of 0.85 ± 0.21%. Further, the “preferential anti-proliferative activity on HT-29” value in assay [4] is “preferential anti-proliferative activity”.
Regarding `c1ccc2c(Cc3c[nH]c4ccccc34)c[nH]c2c1` [DIM, 3,3′-diindolylmethane, reference compound], the IC50 in assay [1] was more than 200 µM; in assay [2] (setting [5]), 52.2 ± 3.8 µM; in assay [2] (setting [6]), 54.7 µM; in assay [4] (setting [7]), 33 µM; in assay [3] (setting [8]) it was 2.09 ± 0.43 µM; in assay [3] (setting [9]), 2.77 µM. The viability at 50 µM in assay [4] (Homo sapiens, 72 h treatment) is 25.3 ± 2.44%. Further, the “CaV3.3 window current potency better than at CaV3.1 and CaV3.2” value in assay [3] (FLIPR) is reported as ~ 25 fold. Moreover, in assay [3] (FLIPR), the “CaV3.3 window current potency better than potency at HVA CaVs” value is more than 27 fold.

These data come from article PMC9412534, “Diindolylmethane Derivatives: New Selective Blockers for T-Type Calcium Channels” (Membranes, 2022).
